“And” between values parts separate entries of the source, which are not always exact repeats. Equal values may be shown once.

Data on 53 molecules can be found in patent US9932300B2, “N,N′-diarylurea compounds and N,N′-diarylthiourea compounds as inhibitors of translation initiation” (President and Fellows of Harvard College, priority 2009, dated 2018).

This assay has as its system eIF2-GTP-Met-tRNAi ternary complex. Put plainly: Ternary complex assay (dual luciferase, firefly/renilla ratio) in stable KLN-tTA/pBISA-DL(ATF-4) cells; HTS and hit confirmation. The arrangement: Activity 10 uM / Activity 2.5 uM / Activity 5 uM: unit not given here. It is filed as cell-based, mouse. The following applies: confirmed hits of the screen (Table 5); for Activity 2.5 uM: compound at 2.5 uM; for Activity 10 uM: compound at 10 uM.

Regarding `CCCCCCNc1nc(N2CCOCC2)c2[nH]c(NCCCCCC)nc2n1` [Compound 401304], the “Activity 2.5 uM” value is on record as 1.04 and the “Activity 10 uM” value turned out to be 43.11. For `Oc1c(Cl)cc(Cl)cc1Cc1cc(Cl)cc(Cl)c1O` [Compound 402193], the “Activity 2.5 uM” value worked out at 0.56 and the “Activity 10 uM” value amounted to 3.19.

Take `Br.CCCCCCCCCCCCNCCCc1ccccc1` [Compound 402291]: the “Activity 2.5 uM” value stood at 0.73 and the “Activity 10 uM” value is 4.43.

With `Oc1ccc(N=Nc2ccc(Cl)cc2)cc1` [Compound 402592], the “Activity 2.5 uM” value was determined as 2.25 and the “Activity 10 uM” value turned out to be 3.48. The like results for `O=C(Nc1ccccc1)c1cc(Cl)ccc1O` [Compound 402600] were, in that order, 1.14 and 4.82. Consider `O=C1C(=O)c2ccccc2-c2ccccc21.O=C1C(=O)c2ccccc2-c2ccccc21.[Hg]` [Compound 402785], for which the “Activity 2.5 uM” value was 50.88.

Take `CC(C)(C)c1ccc(C(=O)C[n+]2ccc(Cl)c3ccc(Cl)cc32)cc1.[Br-]` [Compound 402826]: the “Activity 2.5 uM” value came to 0.85 and the “Activity 10 uM” value is on record as 5.42.

Consider `Cc1ccc([As]=[As]c2ccc(C)cc2N)c(N)c1.Cl` (stereo not drawn) [Compound 402866], for which the “Activity 2.5 uM” value amounted to 1.66 and the “Activity 10 uM” value worked out at 26.02. Regarding `NS(=O)(=O)c1ccc(NC(=S)Nc2ccc(S(=O)(=O)Nc3nccs3)cc2)cc1` [Compound 403440], the “Activity 2.5 uM” value worked out at 1.41 and the “Activity 10 uM” value is reported as 3.83. For `COC1OC(CI)C(OC(=O)c2ccccc2)C(OC(=O)c2ccccc2)C1OC(=O)c1ccccc1` (stereo not drawn) [Compound 403488], in that order: 1.55 and 4.41. Consider `CCOc1ccc2c(c1)/C(=C\C=C\C1CC(C)C3CC(OCC)CCC3N1CC)CC(C)N2CC` (stereo not drawn) [Compound 403534], for which the “Activity 2.5 uM” value came to 7.33 and the “Activity 10 uM” value stood at 9.9. For `Cc1ccc(NC(=O)c2ccc(Cl)cc2Cl)cc1` [Compound 405522], the “Activity 2.5 uM” value stood at 2.47 and the “Activity 10 uM” value is reported as 3.69.

As to `CCCCN=C(C)CC(=O)CC(=O)c1ccccc1` [Compound 406018], the “Activity 2.5 uM” value was 1.51 and the “Activity 10 uM” value is recorded as 4.09.

For `Cc1ccc(C23C=CC(c4ccccc4)(C2)C2C(=O)OC(=O)C23)cc1` (stereo not drawn) [Compound 406824], the “Activity 2.5 uM” value is listed as 1.76 and the “Activity 10 uM” value is reported as 4.25. For `F[B-](F)(F)F.c1ccc([P+](c2ccccc2)(c2ccccc2)c2ccccc2)cc1` [Compound 407396], in that order: 1.72 and 4.74. Turning to `CC(=O)Oc1cc2c(c3ccc4ccccc4c13)CCc1ccccc1-2` [Compound 407658], the “Activity 2.5 uM” value came to 1.57 and the “Activity 10 uM” value came to 5.17.

For the molecule `O=C1C=CC(=Nc2ccc3c(c2)Cc2cc(Br)ccc2-3)O1` [Compound 408380], the “Activity 2.5 uM” value was found to be 2.28 and the “Activity 10 uM” value was determined as 4.36.

Consider `O=C1C=CC(=O)N1c1ccc2c(c1)Cc1cc(NC(=O)C(F)(F)F)ccc1-2` [Compound 408383], for which the “Activity 2.5 uM” value is recorded as 0.84 and the “Activity 10 uM” value is 10.77. For `CN(C)c1ccc(/C=C/c2nccc3ccccc23)cc1` [Compound 408399], the “Activity 2.5 uM” value was 1.63 and the “Activity 10 uM” value is reported as 3.42. For `Cc1cc2c(C(C)C)c(O)c(O)c(C=Nc3ccccc3[N+](=O)[O-])c2c(O)c1-c1c(C)cc2c(C(C)C)c(O)c(O)c(C=Nc3ccccc3[N+](=O)[O-])c2c1O` [Compound 408711], in that order: 1.47 and 21.88. The like results for `Cc1cc2c(C(C)C)c(O)c(O)c(C=Nc3ccc([N+](=O)[O-])cc3)c2c(O)c1-c1c(C)cc2c(C(C)C)c(O)c(O)c(C=Nc3ccc([N+](=O)[O-])cc3)c2c1O` [Compound 408712] were, in that order, 1.57 and 21.65.

Take `Nc1ccc(O)c(-c2ccccc2)c1` [Compound 409777]: the “Activity 2.5 uM” value is 20.85 and the “Activity 10 uM” value worked out at 5.55.

As to `C(=N\Nc1ccc2ccccc2n1)/c1ccccn1` [Compound 527347], the “Activity 2.5 uM” value came out at 2.551 and the “Activity 10 uM” value came out at 5.591. For `CCN(CC)C1=C/CC/C(c2ccccc2)=N/N=C\1c1ccccc1` [Compound 601076], in that order: 2.48 and 3.17. `Cc1ccc2occ/c(=N\Nc3ccccc3)c2c1` [Compound 601994]: the “Activity 2.5 uM” value is listed as 3.42 and the “Activity 10 uM” value was 5.21. For `O=Cc1c(-c2ccccc2)nc2sc(-c3ccc4c(c3)OCO4)nn12` [Compound 602807], the “Activity 2.5 uM” value amounted to 2.08 and the “Activity 10 uM” value was 3.12.

Take `C=C(CN1CCCC1)C(=O)c1ccc(OC)cc1.Cl` [Compound 603554]: the “Activity 2.5 uM” value was determined as 0.35 and the “Activity 10 uM” value is on record as 8.45. Turning to `CC(C)(C)C1=CC(=CC=C2C=CN(CCCCCCCCCCCO)C=C2)C=C(C(C)(C)C)C1=O` [Compound 603854], the “Activity 2.5 uM” value worked out at 0.93 and the “Activity 10 uM” value turned out to be 4.19.

Turning to `Cl.NC[CH2][Sn]([c]1ccccc1)([CH]1CCCCC1)[CH]1CCCCC1` [Compound 604861], the “Activity 2.5 uM” value worked out at 0.8 and the “Activity 10 uM” value was determined as 4.82. With `Cc1c2c(c(C)c3c1C(=O)c1cc4c(cc1C3=O)OCO4)OC(C)(C)O2` [Compound 604868], the “Activity 2.5 uM” value came to 0.86 and the “Activity 10 uM” value amounted to 5.36. In the case of `O=C(N/N=C/c1ccccc1O)c1ccccc1.[Cu+2]` [Compound 607085], the “Activity 2.5 uM” value was determined as 2.21 and the “Activity 10 uM” value was found to be 3.55. Turning to `CN(C)c1ccc(N=Nc2cccc(C(=O)[O-])c2)cc1.CN(C)c1ccc(N=Nc2cccc(C(=O)[O-])c2)cc1.NC1CCCCC1N.O=[N+]([O-])O.[Pt+4]` [Compound 608144], the “Activity 2.5 uM” value amounted to 3.82 and the “Activity 10 uM” value is 112.47. For `C(=N\Nc1ccc2ccccc2n1)/c1ccccn1.CC(=O)[O-].CC(=O)[O-].[Zn+2]` [Compound 609211], in that order: 5.68 and 18.74. Turning to `Cn1cc(/C=C/C(=O)c2ccccc2[N+](=O)[O-])c2ccccc21` [Compound 609810], the “Activity 2.5 uM” value is 2.44 and the “Activity 10 uM” value came to 4.69. With `O=C(N/N=C/c1ccccc1[O-])c1ccccc1O.O=C(N/N=C/c1ccccc1[O-])c1ccccc1O.[Mn+2]` [Compound 610051], the “Activity 2.5 uM” value stood at 1.52 and the “Activity 10 uM” value stood at 9.23. `COC(=O)C1CCC(/C(C#N)=C2/CCC(C(=O)OC)[N-]2)=N1.COC(=O)C1CCC(/C(C#N)=C2/CCC(C(=O)OC)[N-]2)=N1.[Cu+2]` (stereo not drawn) [Compound 617738]: the “Activity 2.5 uM” value was found to be 1.05 and the “Activity 10 uM” value came to 7.65. In the case of `CN1C/C(=C\c2ccccc2)C(=O)/C(=C/c2ccccc2)C1.Cl` [Compound 618767], the “Activity 2.5 uM” value was determined as 0.7 and the “Activity 10 uM” value turned out to be 6.58. With `[Cl][Sn]([CH2][CH2][Sn]([Cl])([c]1ccccc1)[c]1ccccc1)([c]1ccccc1)[c]1ccccc1` [Compound 620291], the “Activity 2.5 uM” value was 8.39 and the “Activity 10 uM” value amounted to 9.07. With `CCC[CH2][Sn]([Cl])([CH2]CCC)[S]/C(C#N)=N/N=C/c1ccc(N(C)C)cc1` [Compound 620296], the “Activity 2.5 uM” value was 5.24 and the “Activity 10 uM” value is reported as 3.13. Consider `C[n+]1[se]nc2ccccc21.Cc1ccc(S(=O)(=O)[O-])cc1` [Compound 620852], for which the “Activity 2.5 uM” value is reported as 4.79 and the “Activity 10 uM” value is listed as 16.94.

As for `Cc1c(C(=O)/C=C/c2ccccc2[N+](=O)[O-])[n+](=O)c2ccccc2n1[O-]` [Compound 621482], the “Activity 2.5 uM” value was 1.17 and the “Activity 10 uM” value came out at 5.15.

Turning to `Cc1cc2c(cc1C)[n+]([O-])c(-c1nc3ccccc3s1)c(N)[n+]2[O-]` [Compound 621504], the “Activity 2.5 uM” value is 14.68. Turning to `COc1ccccc1NC(=S)N/N=C\c1cc(N=Nc2ccccc2)cc(OC)c1O` [Compound 621792], the “Activity 2.5 uM” value was 1.27 and the “Activity 10 uM” value came out at 3.75. The like results for `COc1cc(N=Nc2ccccc2)cc(/C=N/NC(=S)Nc2ccccc2)c1[O-].COc1cc(N=Nc2ccccc2)cc(/C=N/NC(=S)Nc2ccccc2)c1[O-].[Cu+2]` [Compound 621794] were, in that order, 9.24 and 6.6. For the molecule `CSC(=Nc1ccccc1)/N=C(\SCc1ccccc1)N(C)C.I` [Compound 622579], the “Activity 10 uM” value was 6.29 and 10.08. As for `CN(C)C1=NC2=S(SC(Nc3ccccc3)=N2)S1` (stereo not drawn) [Compound 622683], the “Activity 2.5 uM” value is listed as 2.84 and the “Activity 10 uM” value is 3.82.

Turning to `BrC(Br)=C1C(=C(Br)Br)C(Br)C1Br` (stereo not drawn) [Compound 624851], the “Activity 2.5 uM” value stood at 12.65. For `CC(=O)[O-].[O-]c1c(Cl)cc(Cl)cc1/C=N/Nc1ccccn1.[Zn+2]` [Compound 625863], the “Activity 2.5 uM” value turned out to be 3.75 and the “Activity 10 uM” value was found to be 3.72. Consider `COc1ccc2c(c1)CCc1c(CO)c(COC(=O)NC(C)C)n(C)c1-2` [Compound 627459], for which the “Activity 2.5 uM” value is reported as 1.68 and the “Activity 10 uM” value is listed as 7.21. The like results for `CCC[CH2][Sn]1([CH2]CCC)[O]c2ccccc2NCC[N]1c1ccccc1O` [Compound 628577] were, in that order, 1.45 and 3.06. As for `Oc1ccccc1[N]1CCNc2ccccc2[O][Sn]1([c]1ccccc1)[c]1ccccc1` [Compound 628578], the “Activity 2.5 uM” value came to 3.53. Regarding `C=[CH][Sn]([CH]=C)([S]c1cccc2cccnc12)[S]c1cccc2cccnc12` [Compound 628594], the “Activity 2.5 uM” value is 3.94. In the case of `COc1cc[c]([Hg][n+]2c[nH]c3[nH]cnc(=S)c32)cc1` [Compound 631943], the “Activity 2.5 uM” value is recorded as 6.31.
